In brackets after ≈: the same amount, converted by molar mass. A value given as a limit tells only on which side of the number the result lay.

The nature of series [1]: Apparent permeability across apical to basolateral side in human Caco2 cells measured over 90 mins by LC-MS/MS analysis. The following applies: Caco-2. The format is ADME, cell-based. (In general: Caco-2 monolayers are a common model of the intestinal barrier.)
A short description of series [2]: Kinetic solubility of the compound in phosphate buffer at pH 6.5 by nephelometry. It counts as physicochemical. The following applies: read-out: Kinetic_solubility.
A short description of series [3]: Kinetic solubility of the compound in 0.01 M HCl at pH 2 by nephelometry. The format is physicochemical. The settings on record: read-out: Kinetic_solubility.
A short description of series [4]: Cmax in Swiss mouse at 30 mg/kg, ip by UPLC analysis. The following applies: in vivo. It counts as ADME, organism-based. Further details: dose 30 mg/kg, route intraperitoneal.
Series [5] is described as follows: Tmax in Swiss mouse at 30 mg/kg, ip by UPLC analysis. The format is ADME, organism-based. The following applies: in vivo.
Series [6] can be described thus: Cysteine reactivity assessed as induction of confirmational change in 13C-methyl-labeled La antigen at 400 uM incubated for 1 hr at 37 degC followed by incubation at 30 degC for 15 mins in presence of DTT by ALARM NMR assay.
A short description of series [7]: Cysteine reactivity assessed as induction of confirmational change in 13C-methyl-labeled La antigen at 400 uM incubated for 1 hr at 37 degC followed by incubation at 30 degC for 15 mins in absence of DTT by ALARM NMR assay.
Series [8] can be described thus: Cmax in Sprague-Dawley rat at 33 mg/kg, po administered as suspension using HPMC formulation. The following applies: in vivo. Further details: dose 33 mg/kg, route oral. It counts as ADME, organism-based.
A short description of series [9]: AUC (0 to infinity) in Sprague-Dawley rat at 33 mg/kg, po administered as suspension using HPMC formulation. The format is ADME, organism-based. Details: dose 33 mg/kg, route oral, time infinity. The settings on record: in vivo.
Series [10] is described as follows: Tmax in Sprague-Dawley rat at 31 mg/kg, po using PEG400/Solutol HS-15/water formulation. It counts as ADME, organism-based. The settings on record: in vivo.
Series [11] can be described thus: AUC (0 to infinity) in Sprague-Dawley rat at […], iv. It counts as ADME, organism-based. Further details: dose 2.9 mg/kg, time infinity, route intravenous. The following applies: in vivo.
Series [12] can be described thus: Cmax in Sprague-Dawley rat at 31 mg/kg, po using PEG400/Solutol HS-15/water formulation. It counts as ADME, organism-based. Details: dose 31 mg/kg, route oral. The following applies: in vivo.
The nature of series [13]: Tmax in Sprague-Dawley rat at 33 mg/kg, po administered as suspension using HPMC formulation. The settings on record: in vivo. It counts as ADME, organism-based.
The nature of series [14]: Volume of distribution at steady state in Sprague-Dawley rat at […], iv. It counts as ADME, organism-based. The settings on record: in vivo, read-out: Vdss.
Series [15] can be described thus: in vivo. The following applies: Sprague-Dawley, rat, po, 33 mg/kg.
Series [16] is described as follows: AUC (0 to infinity) in Sprague-Dawley rat at 31 mg/kg, po using PEG400/Solutol HS-15/water formulation. The format is ADME, organism-based. Details: dose 31 mg/kg, time infinity, route oral. The following applies: in vivo.
Series [17] in a line: Drug excretion in Sprague-Dawley rat urine at […], iv. The format is ADME, organism-based. The settings on record: in vivo, BLD = below limit of detection.
A short description of series [18]: Drug excretion in Sprague-Dawley rat urine at 33 mg/kg, po administered as suspension using HPMC formulation. The settings on record: read-out: Drug excretion. The format is ADME, organism-based.
Series [19] is described as follows: Drug excretion in Sprague-Dawley rat urine at 31 mg/kg, po using PEG400/Solutol HS-15/water formulation. The settings on record: read-out: Drug excretion. The format is ADME, organism-based.

Turning to `O=C(NNS(=O)(=O)c1ccccc1F)c1cccc(I)c1`, in [1], the Papp A→B at […] turned out to be 60.4 ×10⁻⁶ cm/s.
Take `C=CCOc1ccc(F)c(C(=O)NNS(=O)(=O)c2ccccc2)c1`: the solubility kinetic in series [2] and in series [3] was 50 to 100 µg/mL (≈ 143 to 285 µM) in each case.
Turning to `Cc1cc(-c2ncccn2)cc(C(=O)NNS(=O)(=O)c2ccccc2)c1F`, the solubility kinetic in [2] and in [3] was 50 to 100 µg/mL (≈ 129 to 259 µM) throughout. The Papp A→B at […] in series [1] was found to be 77 ×10⁻⁶ cm/s. Moreover, the highest level in [4] (Cmax) was 12.1 µM. The Tmax in [5] was 0.28 h.
Turning to `CCOc1cc(C)c(F)c(C(=O)NNS(=O)(=O)c2ccccc2)c1`, the solubility kinetic in series [2] and in series [3] was 12.5 to 25 µg/mL (≈ 35.5 to 70.9 µM) in each case. Besides, the Papp A→B at […] in series [1] stood at 65 ×10⁻⁶ cm/s.
Turning to `CCOc1cc(C)cc(C(=O)NNS(=O)(=O)c2ccccc2F)c1`, the solubility kinetic in series [2] and in series [3] was 12.5 to 25 µg/mL (≈ 35.5 to 70.9 µM) throughout. For the same compound, the Drug metabolism result in [6] and in series [7] was “Metabolite_Notdetected” each time. Besides, in series [1], the Papp A→B at […] came to 47 ×10⁻⁶ cm/s.
Turning to `Cc1cc(-c2ccccn2)cc(C(=O)NNS(=O)(=O)c2ccccc2)c1F`, the solubility kinetic in series [2] was in the range of 6.3 to 12.5 µg/mL (≈ 16.3 to 32.4 µM); in series [3], 50 to 100 µg/mL (≈ 130 to 259 µM). Further, in series [1], the Papp A→B at […] was determined as 63 ×10⁻⁶ cm/s.
The matching figures for `Cc1cc(-n2nccn2)cc(C(=O)NNS(=O)(=O)c2ccccc2)c1F`: 25 to 50 µg/mL (≈ 66.6 to 133 µM), 25 to 50 µg/mL (≈ 66.6 to 133 µM) and 53 ×10⁻⁶ cm/s.
With `O=C(NNS(=O)(=O)c1ccccc1F)c1cc(F)cc(-c2ccccn2)c1` [WM-1119], the figures for the Cmax in series [8] and in [12] were 2.9 µM and 14 µM, respectively. For the same compound, the figures for the AUC(0-inf) in [9], in [11] and in series [16] were 13 µM·h, 6.2 µM·h and 38 µM·h, respectively. Also, the Tmax in series [10] and in [13] was 1 h throughout. The solubility kinetic in series [2] and in series [3] was 25 to 50 µg/mL (≈ 64.2 to 128 µM) each time. Further, in series [14], the Vd amounted to 0.72 L/kg. Moreover, in [15], the bioavailability was found to be 18%. In addition, the Drug metabolism entry in series [6] and in series [7] was “Metabolite_Notdetected” each time. Besides, the Drug excretion entry in series [17] is listed as “Bld”. For the same compound, in series [1], the Papp A→B at […] turned out to be 60 ×10⁻⁶ cm/s. Moreover, the figures for the dose excreted in series [18] and in [19] were 0.009% and 0.078%, respectively.
As to `O=C(NNS(=O)(=O)c1ccccc1F)c1cccc(-c2ccccn2)c1`, the solubility kinetic was 12.5 to 25 µg/mL (≈ 33.7 to 67.3 µM) in [2] and 50 to 100 µg/mL (≈ 135 to 269 µM) in series [3].
For `Cc1cc(C(=O)NNS(=O)(=O)c2ccccc2F)cc(-n2cccn2)c1`, the solubility kinetic in series [2] and in series [3] was 12.5 to 25 µg/mL (≈ 33.4 to 66.8 µM) each time.
As for `O=C(NNS(=O)(=O)c1ccccc1F)c1cccc(-n2cccn2)c1`, the solubility kinetic in series [2] and in series [3] was 50 to 100 µg/mL (≈ 139 to 277 µM) throughout.
Take `Cc1cc(C(=O)NNS(=O)(=O)c2ccccc2F)cc(-c2ccccn2)c1`: the solubility kinetic was 12.5 to 25 µg/mL (≈ 32.4 to 64.9 µM) in series [2] and over 100 µg/mL in series [3].
The matching figures for `O=C(NNS(=O)(=O)c1ccccc1F)c1cc(F)cc(-n2cccn2)c1`: 25 to 50 µg/mL (≈ 66.1 to 132 µM) and 25 to 50 µg/mL (≈ 66.1 to 132 µM).
Consider `Cc1cc(-n2cccn2)cc(C(=O)NNS(=O)(=O)c2ccccc2)c1F`, for which the solubility kinetic in [2] and in series [3] was 6.3 to 12.5 µg/mL (≈ 16.8 to 33.4 µM) each time. Further, the Papp A→B at […] in series [1] was 48 ×10⁻⁶ cm/s.
For the compound `CCCOc1cccc(C(=O)NNS(=O)(=O)c2ccccc2F)c1`, the Papp A→B at […] in series [1] came out at 77.3 ×10⁻⁶ cm/s.
As to `O=C(NNS(=O)(=O)c1ccccc1F)c1cc(Cl)cc(-c2cccs2)c1`, the Papp A→B at […] in series [1] amounted to 27.8 ×10⁻⁶ cm/s.
For the compound `CC(C)Oc1cccc(C(=O)NNS(=O)(=O)c2ccccc2F)c1`, the solubility kinetic in [2] and in series [3] was 50 to 100 µg/mL (≈ 142 to 284 µM) each time.
For `Cc1cc(C(=O)NNS(=O)(=O)c2ccccc2F)cc(-c2ccco2)c1`, the solubility kinetic in series [2] and in [3] was 6.3 to 12.5 µg/mL (≈ 16.8 to 33.4 µM) throughout.
As to `Cc1cc(OC(C)C)cc(C(=O)NNS(=O)(=O)c2ccccc2F)c1`, the solubility kinetic in series [2] and in [3] was 12.5 to 25 µg/mL (≈ 34.1 to 68.2 µM) throughout.
For `O=C(NNS(=O)(=O)c1ccccc1F)c1cccc(-c2ccco2)c1`, the Papp A→B at […] in series [1] is 55.3 ×10⁻⁶ cm/s.

The Papp A→B is how fast a substance crosses the layer from the apical side. The Cmax is the peak of the concentration-time curve. The Tmax is the time at which the peak concentration occurs. A word on the AUC(0-inf): it is total exposure, with the tail of the curve extrapolated. Low values mean low exposure, high ones high exposure. Usually bioavailability stands for dose-corrected exposure relative to a reference, in per cent.

(Values after ChEMBL document CHEMBL4402574, “Discovery of Acylsulfonohydrazide-Derived Inhibitors of the Lysine Acetyltransferase, KAT6A, as Potent Senescence-Inducing Anti-Cancer Agents” (J Med Chem, 2020).)
